Counter-ions that a name gives are not always drawn.
What was measured:
[1] = system: inflammatory cells; test: Allergic Brown-Norway rat assay: inhibition of recruitment of inflammatory cells into the airways (BALF cell counts after OVA challenge); format: in vivo, Brown-Norway rats
Description: Assay Protocol for Allergic Brown-Norway Rats:
Inbred male BN rats weighing 150 to 200 g were obtained from Charles River Laboratory (Wilmington, Mass.). Prior to use, the animals were allowed food and water ad libitum. The test compounds were administered 5 h prior to antigen challenge either by oral or inhalational route, as detailed in the “delivery of test compounds” section.
Sensitization and Antigen Bronchoprovocation
The animals were divided into two main groups viz. an alum group and an antigen group. In the antigen group, animals were sensitized by an intra-peritoneal (i.p.) injection of 1 ml alum-precipitated antigen containing 20 μg of ovalbumin (OVA, grade III; Sigma chemical Co., St Louis, Mo.) and 8 mg of Al(OH)3 suspended in 0.9% saline vehicle. A booster injection of this alum-OVA mixture was given again 7 days later. Animals belonging to the alum group received injections containing alum only. Seven days after the second injection, animals were exposed to aerosolized antigen bronchoprovocation which was performed by placing the rats in an enclosed plexiglass chamber (21 liters) and exposing the rats to aerosolized OVA (1%) for 30 min. The aerosolized OVA was produced by an ultrasonic nebulizer (DeVilbiss, Somerset, Pa., USA; Model Ultra-Neb 99) at a flow rate of approximately 8 liters/min. […]

[2] = system: rats; test: Lung function assay (forced expiratory maneuvers after ovalbumin challenge); format: in vivo; conditions: 5 hr before antigen challenge
Description: Two fasted Sprague Dawley rats were dosed orally at 10 mpk with compound in 0.4% HPMC vehicle. The dose volume was 5 ml/kg dose. Plasma was collected at 0.5, 1, 2, 3, 4, and 6 hr. Blood samples were collected with heparin, and the plasma was stored with EDTA.
Lung function was measured using a forced expiratory maneuvers technique. In this procedure, the rats were anesthetized and a tracheal catheter was inserted. The rats were placed inside a whole body plethysmograph that contained a breathing valve capable of separating inflations and deflations of the lungs. The lungs were then subject to forced inflation of the lungs to total lung capacity followed by rapid deflation to residual volume. Measurements of forced vital capacity and peak expiratory flow were used to measure the effects of antigen challenge and assess the inhibitory effects of the compound of formula I. The drug was admixed with lactose for intratracheal delivery and given directly into the trachea with a fine microsprayer 5 hr before the antigen challenge. Orally delivered compound was given in 0.4% methylcellulose vehicle 5 hr before the antigen challenge. Control animals received intratracheal lactose or methylcellulose, respectively. The antigen challenge consisted of aerosolized exposure for 30 min to 1% ovalbumin. Forced expiratory lung functions were measured 24 hr after the antigen (ovalbumin) exposure.

[3] = Rat PK assay; format: in vivo, Sprague Dawley rats; conditions: Sprague Dawley, plasma, 30 mg/kg, 30 mpk po
Description: Using the above test procedure, the following results were obtained: • tartrate salt: monkey AUC=30 ng.h/mL at 10 mpk po • xinafoate salt: monkey AUC=0 ng.h/mL at 10 mpk po Assay Protocol for Rat PK Assay:
[…] The dose volume was 5 ml/kg dose. Plasma was collected at 0.5, 1, 2, 3, 4, and 6 hr. Blood samples were collected with heparin, and the plasma was stored with EDTA.

[4] = Physical properties of salts of Compound A (hygroscopicity, hydrate stability); format: physicochemical; conditions: solid salt

| Molecule | inhibition of inflammatory cells ([1]; 0.02 mpk, intra-tracheal dosing, 5 h prior to antigen challenge, allergic BN rats) [%] | better inhibition of inflammatory cells via intra-trachea administration compared to oral administration ([1]; intra-trachea vs oral administration) [fold] | inhibition of forced vital capacity (FVC) ([2]; 0.02 mpk it (intra-tracheal)) [%] | inhibition of forced vital capacity (FVC) ([2]; 3 mpk po) [%] | AUC [3] [ng·h/mL] | hygroscopicity [4] | stability of crystalline forms [4] |
| --- | --- | --- | --- | --- | --- | --- | --- |
| CCOC(=O)[C@@H]1C[C@@H](NC(=O)C2CC2)CN1C(=O)c1nc(-c2ccc(OC)c3nc(C(F)(F)F)ccc23)oc1[C@H](C)N [xinafoate salt, xinafoate salt of 1-[[5-(1(S)-aminoethyl)-2-[8-methoxy-2-(trifluoromethyl)5-quinolyl]-4-oxazolyl]carbonyl]-4(R)-[(cyclopropyl-carbonyl)amino]-L-proline, ethyl ester] | 69 | 25 | 54 | 31 | 350 | non-hygroscopic | – |
| fumarate | – | – | – | – | – | – | unstable hydrates |
